Measured values from patent US6127136A, “Detection of dioxin-like compounds by detection of transformed Ah receptor/ARNT complex” (Paracelsian, Inc., priority 1996, dated 2000).
Values joined by “and” are separate entries in the source; they are usually repeats but may differ in a detail not shown here. Identical values can stand only once.

Target: T1, transformed Ah receptor (Cavia porcellus, UniProt Q6J287)
T1 construct: TCDD-transformed receptor captured as heterodimer on DRE-oligonucleotide gel; recombinant ARNT added in some protocols
T1 sequence (Q6J287 10-846): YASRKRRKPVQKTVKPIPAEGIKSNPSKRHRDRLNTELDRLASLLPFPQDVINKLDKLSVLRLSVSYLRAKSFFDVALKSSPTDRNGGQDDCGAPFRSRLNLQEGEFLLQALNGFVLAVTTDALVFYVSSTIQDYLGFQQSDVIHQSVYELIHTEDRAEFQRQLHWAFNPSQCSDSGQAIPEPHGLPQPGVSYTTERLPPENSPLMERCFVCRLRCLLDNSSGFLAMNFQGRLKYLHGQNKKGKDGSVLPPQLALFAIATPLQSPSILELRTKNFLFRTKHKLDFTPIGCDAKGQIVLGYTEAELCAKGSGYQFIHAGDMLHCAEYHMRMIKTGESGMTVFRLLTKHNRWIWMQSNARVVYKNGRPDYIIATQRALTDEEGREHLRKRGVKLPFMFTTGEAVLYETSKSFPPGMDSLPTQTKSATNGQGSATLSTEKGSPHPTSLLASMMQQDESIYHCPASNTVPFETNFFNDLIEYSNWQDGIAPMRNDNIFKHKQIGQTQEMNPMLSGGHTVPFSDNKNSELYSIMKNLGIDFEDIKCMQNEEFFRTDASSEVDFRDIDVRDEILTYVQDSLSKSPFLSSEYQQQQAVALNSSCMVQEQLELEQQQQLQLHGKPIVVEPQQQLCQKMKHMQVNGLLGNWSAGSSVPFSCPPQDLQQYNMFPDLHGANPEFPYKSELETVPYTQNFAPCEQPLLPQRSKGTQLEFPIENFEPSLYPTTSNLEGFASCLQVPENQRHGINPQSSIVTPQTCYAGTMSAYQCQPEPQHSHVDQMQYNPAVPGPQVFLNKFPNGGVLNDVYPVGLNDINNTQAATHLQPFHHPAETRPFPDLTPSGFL
T1 sequence (Q0WXX3 1-790 partner): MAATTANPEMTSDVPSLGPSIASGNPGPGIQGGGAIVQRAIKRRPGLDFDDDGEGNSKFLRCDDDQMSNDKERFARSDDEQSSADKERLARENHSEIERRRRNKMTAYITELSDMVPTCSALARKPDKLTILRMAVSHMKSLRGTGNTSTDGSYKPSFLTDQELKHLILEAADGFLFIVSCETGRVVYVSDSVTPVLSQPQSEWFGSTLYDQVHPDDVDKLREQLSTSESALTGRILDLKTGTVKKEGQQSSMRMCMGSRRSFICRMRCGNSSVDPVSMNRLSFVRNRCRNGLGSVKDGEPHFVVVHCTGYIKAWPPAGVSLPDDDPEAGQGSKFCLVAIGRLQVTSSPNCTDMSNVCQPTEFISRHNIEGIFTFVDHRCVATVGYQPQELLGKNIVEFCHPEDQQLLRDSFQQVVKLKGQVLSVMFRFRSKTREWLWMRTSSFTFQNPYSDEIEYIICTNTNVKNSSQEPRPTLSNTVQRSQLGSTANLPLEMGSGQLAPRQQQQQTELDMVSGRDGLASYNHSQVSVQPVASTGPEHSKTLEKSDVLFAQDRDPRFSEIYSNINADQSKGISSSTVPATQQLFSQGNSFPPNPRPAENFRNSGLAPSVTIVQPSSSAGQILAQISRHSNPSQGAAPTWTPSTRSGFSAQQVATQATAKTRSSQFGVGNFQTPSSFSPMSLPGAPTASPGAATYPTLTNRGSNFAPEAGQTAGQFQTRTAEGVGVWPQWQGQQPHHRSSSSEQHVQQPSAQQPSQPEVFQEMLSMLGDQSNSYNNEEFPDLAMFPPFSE
Experiment: mini-Ah immunoassay (DRE affinity gel, dot-blot spot density), with or without added recombinant ARNT
Format: biochemical, guinea pig (male Hartley, hepatic cytosol)
Description: Male Hartley guinea pigs weighing 300-350 g were obtained from Cornell Research Animal Resources, Cornell University, Ithaca, N.Y. Guinea pigs were anaesthetized and killed with carbon dioxide. Livers were perfused in situ with 100 mL ice-cold perfusion buffer, excised, trimmed of connective tissue, poorly perfused liver and gall bladder and weighed. The liver was minced and five mL of ice-cold HEDG per gram liver were added and the whole homogenized in a 50 mL homogenizer with teflon pestle using at 200 rpm for a total of seven strokes. Crude homogenate was centrifuged at 12,500 RPM in 50 mL tubes in a JA17 rotor in a Beckman J2-MI preparative centifuge at 4 degrees C for 20 minutes.
Procedure for the mini-Ah Immuno Assay
Preparation of Buffers: 155 uM TCDD stock was prepared by dissolving 1 mg 2,3,7,8-tetrachloro-dibenzo-p-dioxin (Cambridge Isotope Labs) in 20 mL DMSO (dimethylsulfoxide) overnight. 10 uM working dilution of TCDD was prepared by diluting 0.129 mL of the stock with 1.871 mL DMSO. 4M NaCl/HEDG was prepared by adding 116.88 g sodium chloride to 300 mL HEDG and adjusting the volume to 500 mL with HEDG. 0.3 M NaCl/HEDG was prepared by diluting 1.5 mL 4 M NaCl/HEDG to 20 mL with HEDG 0.6 M NaCl/HEDG was prepared by diluting 3.0 mL 4 M NaCl/HEDG to 20 mL with HEDG TBST was prepared by dissolving 1.18 g Tris-base, 6.35 g Tris-HCl, 8.76 g NaCL, and 2 mL Tween 20 in 800 mL water, adjusting volume to 1000 mL. Blocker was prepared by dissolving 10 g non-fat dry milk (Carnation) in 200 mL TBST. AP development buffer was prepared by dissolving 11 g Tris-base, 1.6 g Tris-HCl, 5.84 g Sodium Chloride, 10.2 g Magnesium Chloride hexahydrate, in 800 mL water and adjusting the volume to 1000 mL. BCIP stock was prepared by dissolving 100 mg BCIP (5-Bromo-4-Chloro-3-Indolyl Phosphate) in 2 mL N,N-Dimethylformamide, aliquoting into 66 uL portions, and freezing at -20 C until use. NBT stock was prepared by dissolving 250 mg NBT (Nitro Blue Tetrazolium) in 25 mL water, aliquoting into 660 uL proportions, and storing at -20 C until use. BCIP/NBT developer was prepared immediately before use by mixing one 66 uL aliquot of BCIP and one 660 uL aliquot of NBT in 20 mL AP development buffer.
For a typical mini-Ah immunoassay utilizing 12 samples, 5 mL of Transformed Ah Receptor Affinity Gel slurry described above was pipeted into a 50 mL conical tube. The slurry was washed with 40 mL HEDG and centifuged at 1000 g for 5 min, the supernatant withdrawn and discarded, the pellet washed with 40 mL HEDG, and centrifuged again. After the second centrifugation all but 5 mL of supernatant was withdrawn and the gel thus resuspended in the original volume. 10 mL guinea pig hepatic cytosol was thawed. The thawed cytosol was pooled and then divided into two 5 mL groups and treated with either 5 uL DMSO or 5 uL 10 uM TCDD in DMSO.
Assembly of transformation mixture:In the preferred embodiment of the mini-Ah immunoassay, each sample was composed of one 1.5 mL microfuge tube with the following sequential additions: 90 uL 4 M NaCl/HEDG, 400 uL Transformed Ah Receptor Affinity Gel slurry and 800 uL cytosol (treated with DMSO or TCDD as described above). The three components described above are the minimum components added at that step of the mini-Ah immunoassay. Any additional materials, such as ARNT, anti-ARNT and anti-Rabbit/alkaline phosphatase conjugate, were sometimes also added at this time as described in the specific examples. After assembly of the samples, the tubes were capped and the samples incubated at room temperature for 2 hours with gentle rocking to allow transformation of the Ah receptor to take place, interaction of transformed Ah receptor and ARNT, and binding of the transformed Ah receptor as a heteromer to the DRE oligonucleotide contained on the Transformed Ah Receptor Affinity Gel.
Isolation transformed Ah receptor: After the 2 hour incubation the mixtures were pipetted into the empty column barrels and allowed to drain. […]

With `Clc1cc2c(cc1Cl)Oc1cc(Cl)c(Cl)cc1O2` [TCDD, 2,3,7,8-tetrachlorodibenzo-p-dioxin] the “spot density, difference TCDD treated (+) minus DMSO treated (-)” value (Example 1, arnt spike 2 ug) was 224497, the “spot density, average” value (Example 1, arnt spike 2 ug, TCDD (+), average of two replicates) was 303679 and the spot density (Example 1, arnt spike 2 ug, TCDD (+), single replicate) was 308831 and 298526. The “spot density, difference TCDD treated (+) minus DMSO treated (-)” value (Example 1, normal protocol, no ARNT added) was 49541, the “spot density, average” value (Example 1, normal protocol, no ARNT added, TCDD (+), average of two replicates) was 149868 and the spot density (Example 1, normal protocol, no ARNT added, TCDD (+), single replicate) was 157620 and 142115. For the same molecule, the “spot density, difference TCDD treated (+) minus DMSO treated (-)” value (Example 2, 0.5 ug arnt) was 129849, the “spot density, average” value (Example 2, 0.5 ug arnt, TCDD (+), average of two replicates) was 174210 and the spot density (Example 2, 0.5 ug arnt, TCDD (+), single replicate) was 184049 and 164371. For the same molecule, the “spot density, difference TCDD treated (+) minus DMSO treated (-)” value (Example 2, 2.0 ug arnt) was 209747, the “spot density, average” value (Example 2, 2.0 ug arnt, TCDD (+), average of two replicates) was 270107 and the spot density (Example 2, 2.0 ug arnt, TCDD (+), single replicate) was 281912 and 258302. For the same molecule, the “density, difference TCDD treated (+) minus DMSO treated (-)” value (Example 3, normal, anti-Ah receptor probe) was 77724, the “density, average” value (Example 3, normal, anti-Ah receptor probe, TCDD (+), average of two replicates) was 169988 and the density (Example 3, normal, probed with anti-Ah receptor/alkaline phosphatase, TCDD (+), single replicate) was 177175 and 162801.
